This is an account of results in the Bradley open melting point set (2014).

Values joined by “and” are separate entries in the source; they are usually repeats but may differ in a detail not shown here. Equal entries are not always repeated.

As for `O=C(O)c1ccccc1Cl` [2-Chlorobenzoic acid], the melting point came out at 142 °C.
With `OCc1ccc(CO)cc1` [1,4-benzenedimethanol] the figure was 119 °C; with `Cc1cc(C)c([N+](=O)[O-])c(C)c1Br` [2-bromo-4-nitro-1,3,5-trimethylbenzene], 60 °C; with `CC(=O)/C(C)=N\O` [(3Z)-3-(Hydroxyimino)butan-2-one], 75 °C.
Regarding `CCCCc1ccccc1` [butylbenzene], the melting point was -88 °C.
To `CS(=O)(=O)c1ccc(C(=O)O)cc1` [4-(methylsulfonyl)benzoic acid] belongs 273 °C; to `Nc1ccc(S(=O)(=O)c2ccc(N)cc2)cc1` [dapsone], 176 °C.
On to `O=Cc1ccc(CO)o1` [5-hydroxymethyl-2-furaldehyde], for which the melting point is 34 °C.
With `CCCC(=O)OCC` [ethyl_butyrate], the melting point was -93 °C.
In turn, `Cc1ccn[nH]c1=O` [4-Methylpyridazin-3(2H)-one] came in with a melting point of 154 °C.
Turning to `Clc1cccc(Cl)c1Cl` [1,2,3-trichlorobenzene], the melting point was determined as 54 °C.
In turn, `CC(C)(C)C1=CC(=O)C=C(C(C)(C)C)C1=O` [2,6-di-tert-butyl-p-benzoquinone] had a melting point of 67 °C.
With `Cc1cccc([N+](=O)[O-])c1C` [3-nitro-o-xylene] the figure was 14 °C; with `O=C1OC(c2ccccc2)=N/C1=C/c1ccc(-c2ccccc2Br)o1`, 160 °C.
The molecule `CC(C)C=O` [2-Methylpropanal] yielded a melting point of -65 °C.
With `N#C/C=C/c1cc(C(F)(F)F)cc(C(F)(F)F)c1` [3,5-bis(trifluoromethyl)cinnamonitrile] the figure was 82 °C; with `CC(=O)c1ccc2c(c1)CCCC2` [6-acetyl-1,2,3,4-tetrahydronaphthalene], -21 °C; with `COC(=O)CCCCCCCCC(=O)OC` [dimethyl_sebacate], 30 °C.
The molecule `Cc1cc(C)n(C(N)=O)n1` [3,5-dimethyl-1h-pyrazole-1-carboxamide] had a melting point of 113 °C.
For the molecule `O=C(O)c1cc(Cl)c([N+](=O)[O-])cc1[N+](=O)[O-]` [5-chloro-2,4-dinitrobenzoic acid], the melting point was determined as 181 °C.
To `OB(O)c1ccc(Br)cc1F` [4-bromo-2-fluorobenzeneboronic acid] belongs 240 °C; to `C=C1/C(=N/Nc2cc(Cl)c(Cl)cc2Cl)C(=O)N(C)C(=O)N1C`, 244 °C.
To `CCOC1Oc2ccc(C)cc2C(=O)/C1=C\Nc1nc2ccc(Cl)cc2s1` (centres undefined) belongs 147 °C; to `OB(O)c1cccs1` [thiophene-2-boronic acid], 130 °C; to `CCOC(=O)CC(C)=O` [ethyl acetoacetate], -43 °C.
To `CCCCCCC(=O)OCC` [ethyl_heptanoate] belongs -66 °C; to `COc1ccc2cc(C(C)CO)ccc2c1` (centres undefined) [Naproxol], 87 °C; to `N#CCc1c[nH]cn1` [(4-imidazolyl)acetonitrile], 137 °C.
`CC(C)CCC[C@@H](C)[C@H]1CC[C@H]2[C@@H]3CC[C@H]4C[C@@H](O)CC[C@]4(C)[C@H]3CC[C@]12C` [5alpha-cholestan-3beta-ol] returned a melting point of 142 °C.
To `CC(C)CC=CB(O)O` [4-methyl-1-pentenylboronic acid] belongs 101 °C.
To `BrCc1nc2ccccc2s1` [2-(bromomethyl)benzothiazole] belongs 48 °C.
To `OCCCCCCCCCCCCO` [1,12-dodecanediol] belongs 83 °C; to `COC1=CC(=O)C=C(OC)C1=O` [2,6-dimethoxy-p-benzoquinone], 255 °C.
Molecule `O=C(O)c1ccc(F)cc1` [4-fluorobenzoic acid] yielded a melting point of 185 °C.
With `O=C(O)c1ccccc1C(=O)Nc1cccc2ccccc12` [2-(1-Naphthylcarbamoyl)benzoic acid] the figure was 203 °C; with `COc1ccc2c(C(=S)N(C)CC(=O)O)cccc2c1C(F)(F)F` [tolrestat], 164 °C.
`CCCCCCCCCCCCCCCCCCCCCC(=O)O` [behenic acid] returned a melting point of 76 °C.
With `Nc1ccc(CCC(=O)O)cc1` [3-(4-aminophenyl)propionic acid] the figure was 134 °C; with `O=[N+]([O-])c1ccc2c(c1)-c1cccc([N+](=O)[O-])c1C2` [1,6-dinitro-9H-fluorene], 286 °C.
To `CCCCCCCCCCc1ccc(-c2ccccc2)cc1` [4-n-decylbiphenyl] belongs 53 °C; to `COc1ccccc1-c1ccccc1` [2-methoxybiphenyl], 31 °C; to `CN1[C@@H]2CC[C@H]1C[C@@H](O)C2` [tropine], 63 °C.
To `O=C1C=CC(=O)c2ccccc21` [1,4-Naphthoquinone] belongs 126 °C.
The molecule `COC1OC(=O)c2ccccc21` (centres undefined) [3-methoxy-2-benzofuran-1(3H)-one] returned a melting point of 44 °C.
Take `Oc1cccc2[nH]nnc12` [4-hydroxy-1h-benzotriazole]: the melting point came out at 222 °C.
With `CCCCCCCCCCCc1ccccc1` [Undecylbenzene] the figure was -5 °C.
Take `c1ccc(-c2cccc(-c3ccccn3)n2)nc1` [2,2':6',2''-terpyridine]: the melting point worked out at 91 °C.
With `BrC(c1ccccc1)c1ccccc1` [bromodiphenylmethane] the figure was 41 °C.
In turn, `Cc1cncc(C(=O)O)c1` [5-methylnicotinic acid] returned a melting point of 213 °C.
To `NCC(CC(=O)O)c1ccc(Cl)cc1` (centres undefined) [baclofen] belongs 208 °C.
To `CCCCCCCO` [1-heptanol] belongs -34 °C (2×) and -33.2 °C; to `CC(Oc1c(Cl)cccc1Cl)C1=NCCN1` (centres undefined) [Lofexidine], 127 °C; to `c1cc2cccc3c4cccc5cccc(c(c1)c23)c54` [Perylene], 278 °C.
Regarding `NCCCNCCCCNCCCN` [spermine], the melting point came to 29 °C.
To `Cc1ccc(CC#N)cc1` [p-tolylacetonitrile] belongs 18 °C; to `CS(=O)c1ccc(B(O)O)cc1` (centres undefined) [4-(methylsulfinyl)benzeneboronic acid], 170 °C; to `O=C(O)c1ccc2ncccc2c1` [quinoline-6-carboxylic acid], 295 °C.
For `Nc1ccc(-c2ccc(N)cc2)cc1` [Biphenyl-4,4'-diamine], the melting point was determined as 128 °C.
To `CC(=O)N[C@@H](Cc1ccc(O)cc1)C(=O)O` [N-acetyl-l-tyrosine] belongs 153 °C; to `O=[N+]([O-])c1ccc(C2OCCO2)cc1` [4-nitrobenzaldehyde ethylene glycol acetal], 86 °C; to `Cc1ccc(N)c([N+](=O)[O-])c1` [4-methyl-2-nitroaniline], 117 °C.
With `O=[N+]([O-])c1ccc(Cl)c(CO)c1` [2-chloro-5-nitrobenzyl alcohol] the figure was 77 °C; with `Clc1cc(Cl)c(Cl)cc1Cl` [1,2,4,5-Tetrachlorobenzene], 139 °C; with `CCCCCC(=O)O` [hexanoic acid], -1.9 °C.
